Key:
[1] = target: T1, Oxysterols receptor LXR-alpha (Homo sapiens, UniProt Q13133); test: Displacement of [3H]TO901317 from human recombinant LXRalpha expressed in Escherichia coli by flashplate method
T1 sequence (Q13133 whole entry): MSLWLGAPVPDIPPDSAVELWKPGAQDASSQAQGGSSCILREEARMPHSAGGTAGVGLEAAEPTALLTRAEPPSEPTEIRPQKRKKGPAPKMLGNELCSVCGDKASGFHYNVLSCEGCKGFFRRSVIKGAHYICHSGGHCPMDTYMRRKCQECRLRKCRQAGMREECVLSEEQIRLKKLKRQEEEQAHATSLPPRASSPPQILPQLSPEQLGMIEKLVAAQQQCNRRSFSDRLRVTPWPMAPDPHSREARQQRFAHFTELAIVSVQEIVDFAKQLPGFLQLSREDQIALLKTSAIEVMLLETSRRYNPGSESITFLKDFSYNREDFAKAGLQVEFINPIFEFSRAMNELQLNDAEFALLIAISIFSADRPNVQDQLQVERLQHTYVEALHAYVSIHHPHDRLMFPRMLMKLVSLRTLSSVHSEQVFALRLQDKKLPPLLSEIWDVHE

[2] = target: T2, Oxysterols receptor LXR-beta (Homo sapiens, UniProt P55055); test: Displacement of [3H]TO901317 from human recombinant LXRbeta expressed in Escherichia coli by flashplate method
T2 sequence (P55055 whole entry): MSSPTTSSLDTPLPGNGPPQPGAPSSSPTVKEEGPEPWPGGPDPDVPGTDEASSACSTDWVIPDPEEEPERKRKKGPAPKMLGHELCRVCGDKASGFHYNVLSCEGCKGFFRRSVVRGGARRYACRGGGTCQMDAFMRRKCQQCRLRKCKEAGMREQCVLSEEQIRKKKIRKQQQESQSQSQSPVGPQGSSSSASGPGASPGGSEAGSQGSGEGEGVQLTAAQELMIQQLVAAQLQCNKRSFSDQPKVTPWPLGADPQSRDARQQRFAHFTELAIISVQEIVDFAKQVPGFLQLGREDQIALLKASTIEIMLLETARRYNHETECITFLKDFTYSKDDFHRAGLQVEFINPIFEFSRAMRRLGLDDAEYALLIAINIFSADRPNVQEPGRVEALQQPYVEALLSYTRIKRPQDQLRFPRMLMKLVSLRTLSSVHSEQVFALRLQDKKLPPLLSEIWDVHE

[3] = Cmax in Long Evans rat plasma at 10 mg/kg, po; assay type: ADME, organism-based; parameters: dose 10 mg/kg, route oral
THP-1 [4] = test: Stimulation of [3H]cholesterol efflux in human THP1 foam cells loaded with ac-LDL relative to TO901317; assay type: functional, cell-based
THP-1 [5] = test: Stimulation of [3H]cholesterol efflux in human THP1 foam cells loaded with ac-LDL; assay type: functional, cell-based
HepG2 [6] = test: Effect on triglyceride accumulation in human HepG2 cells relative to TO901317; assay type: functional
THP-1 [7] = test: Effect on ABCA1 gene expression in human differentiated THP1 cells; assay type: functional, cell-based
[8] = Cmax in Long Evans rat brain at 10 mg/kg, po; assay type: ADME, organism-based; parameters: dose 10 mg/kg, route oral
[9] = target: T2, Oxysterols receptor LXR-beta
[10] = Ratio of AUC (0 to infinity) in brain to AUC (0 to infinity) in plasma in Long Evans rat at 10 mg/kg, po; assay type: ADME, organism-based; parameters: dose 10 mg/kg, route oral; details: brain and plasma
Plasma [11] = test: AUC (0 to infinity) in Long Evans rat plasma at 10 mg/kg, po; assay type: ADME, organism-based; parameters: time infinity, dose 10 mg/kg, route oral; details: in vivo
THP-1 [12] = test: Effect on ABCA1 gene expression in human differentiated THP1 cells relative to TO901317; assay type: functional
Plasma [13] = test: AUC (0 to infinity) in Long Evans rat brain at 10 mg/kg, po; assay type: ADME, organism-based; parameters: time infinity, dose 10 mg/kg, route oral; details: in vivo
[14] = target: T1, Oxysterols receptor LXR-alpha
HepG2 [15] = test: Effect on triglyceride accumulation in human HepG2 cells; assay type: functional, cell-based
[16] = Cmax in Long Evans rat plasma at 30 mg/kg, po; assay type: ADME, organism-based; parameters: dose 30 mg/kg, route oral
[17] = Cmax in Long Evans rat brain at 30 mg/kg, po; assay type: ADME, organism-based; parameters: dose 30 mg/kg, route oral
[18] = Ratio of AUC (0 to infinity) in brain to AUC (0 to infinity) in plasma in Long Evans rat at 30 mg/kg, po; assay type: ADME, organism-based; parameters: dose 30 mg/kg, route oral; details: brain and plasma
Plasma [19] = test: AUC (0 to infinity) in Long Evans rat brain at 30 mg/kg, po; assay type: ADME, organism-based; parameters: time infinity, dose 30 mg/kg, route oral; details: in vivo
Plasma [20] = test: AUC (0 to infinity) in Long Evans rat plasma at 30 mg/kg, po; assay type: ADME, organism-based; parameters: time infinity, dose 30 mg/kg, route oral; details: in vivo

Row | IC50 [1] [nM] | IC50 [2] [nM] | SMILES | further results
1 | 756 | 28 | Cc1cccc2c(-c3cccc(Oc4cccc(S(C)(=O)=O)c4)c3)c(C(N)=O)cnc12 | 
2 | 6350 | 1080 | CS(=O)(=O)c1cccc(Oc2cccc(-c3c(C(=O)O)cnc4c(C(F)(F)F)cccc34)c2)c1 | 
3 | 543 | 16 | CS(=O)(=O)c1cccc(Oc2cccc(-c3c(C(N)=O)cnc4c(Cl)cccc34)c2)c1 | Cmax [3]: 1270 ng/mL; Activity (THP-1 [4]): 71%; EC50 (THP-1 [5]): 10 nM; Efficacy (HepG2 [6]): 68%; EC50 (THP-1 [7]): 440 nM; Cmax [8]: 107 ng/mL; EC50 [9]: 630 nM; Kp [10]: 0.08; AUC (Plasma [11]): 5417 ng/mL; Efficacy (THP-1 [12]): 107%; AUC (Plasma [13]): 457 ng/mL; EC50 [14]: 3000 nM; EC50 (HepG2 [15]): 1250 nM
4 | 286 | 5 | CC(C)S(=O)(=O)c1cccc(Oc2cccc(-c3c(C(N)=O)cnc4c(C(F)(F)F)cccc34)c2)c1 | 
5 | 12700 | 590 | CS(=O)(=O)c1cccc(Oc2cccc(-c3c(C(N)=O)cnc4c(F)cccc34)c2)c1 | 
6 | 453 | 11 | CCS(=O)(=O)c1cccc(Oc2cccc(-c3c(C(N)=O)cnc4c(C(F)(F)F)cccc34)c2)c1 | 
7 | > 10000 | 2850 | CS(=O)(=O)c1cccc(Oc2cccc(-c3c(C(N)=O)cnc4ccccc34)c2)c1 | 
8 | 29800 | 5130 | CS(=O)(=O)c1cccc(Oc2cccc(-c3c(C(=N)N)cnc4c(C(F)(F)F)cccc34)c2)c1 | 
9 | 600 | 18 | CS(=O)(=O)c1cccc(Oc2cccc(-c3c(C(N)=O)cnc4c(C(F)(F)F)cccc34)c2)c1 | Efficacy (HepG2 [6]): 47%; EC50 (THP-1 [7]): 110 nM; EC50 [9]: 1600 nM; Efficacy (THP-1 [12]): 104%; EC50 [14]: 4500 nM; EC50 (HepG2 [15]): 370 nM

The remaining lines, values behind:

Row | SMILES | IC50 [1] [nM] | IC50 [2] [nM] | further results
10 | CS(=O)(=O)c1cccc(Oc2cccc(-c3c(-n4cnnn4)cnc4c(C(F)(F)F)cccc34)c2)c1 | 26600 | 5290 | 
11 | O=C(O)Cc1ccc(COc2cccc(-c3c(Cc4ccccc4)cnc4c(C(F)(F)F)cccc34)c2)cc1 |  |  | Activity (THP-1 [4]): 88%
12 | CS(=O)(=O)c1cccc(Oc2cccc(-c3c(C#N)cnc4c(C(F)(F)F)cccc34)c2)c1 | 13.4 | 2.2 | 
13 | CS(=O)(=O)c1cc(F)cc(Oc2cccc(-c3c(C(N)=O)cnc4c(C(F)(F)F)cccc34)c2)c1 | 552 | 18 | 
14 | CCNC(=O)c1cnc2c(C(F)(F)F)cccc2c1-c1cccc(Oc2cccc(S(C)(=O)=O)c2)c1 | 6860 | 730 | 
15 | CCOC(=O)c1cnc2c(C(F)(F)F)cccc2c1-c1cccc(Oc2cccc(S(C)(=O)=O)c2)c1 | 6.6 | 2 | 
16 | CS(=O)(=O)c1cc(Cl)cc(Oc2cccc(-c3c(C(N)=O)cnc4c(C(F)(F)F)cccc34)c2)c1 | 1770 | 62 | 
17 | CNC(=O)c1cnc2c(C(F)(F)F)cccc2c1-c1cccc(Oc2cccc(S(C)(=O)=O)c2)c1 | > 10000 | 367 | 
18 | CS(=O)(=O)c1cccc(Oc2cccc(-c3c(CN)cnc4c(C(F)(F)F)cccc34)c2)c1 | 445 | 77 | 
19 | CCCS(=O)(=O)c1cccc(Oc2cccc(-c3c(C(N)=O)cnc4c(C(F)(F)F)cccc34)c2)c1 | 1360 | 57 | 
20 | Fc1ccc(-c2c3cccc(C(F)(F)F)c3nn2Cc2ccc(F)cc2Cl)cc1 [LXR-623] |  |  | Efficacy (HepG2 [6]): 38%; Cmax [16]: 2850 ng/mL; Cmax [17]: 3530 ng/mL; Efficacy (THP-1 [12]): 100%; Kp [18]: 1.2; AUC (Plasma [19]): 15312 ng/mL; AUC (Plasma [20]): 13057 ng/mL; EC50 (HepG2 [15]): 1000 nM

Reference: ChEMBL document CHEMBL1153188, “Quinoline-3-carboxamide containing sulfones as liver X receptor (LXR) agonists with binding selectivity for LXRbeta and low blood-brain penetration” (Bioorg Med Chem Lett, 2010)
